{
  "source": "patent US20010007866A1",
  "about": "“TREATMENT OF PRURITUS WITH VITAMIN D AND ANALOGS THEREOF” (priority 1995, published 2001)",
  "key": {"pruritus of sunburn": {"tested_on": "pruritus of sunburn", "experiment": "Topical application to pruritus of sunburn (subject two)", "type": "in vivo, human", "method": "A corn oil solution of vitamin D3 was prepared by adding 1 gram of vitamin D3 to 20 ml corn oil with mixing for approximately 1 hour followed by brief heating to approximately 45° C. until dissolved. One ml of this solution was mixed with 47 ml corn oil and 2 ml isopropyl myristate to obtain a final concentration of vitamin D3 of 1000 μg/ml.\nSubject two developed a sunburn on the back and experienced severe pruritus. […] The pruritus abated completely about one-half hour after these applications."}, "[1]": {"tested_on": "pruritus caused by poison ivy", "experiment": "Topical application to poison ivy rash, pruritic score on 100 mm visual analog scale (subject one)", "type": "in vivo, human", "method": "Testing Procedure: Subject one contracted poison ivy rash and tested the various preparations above. Preparations were evaluated by the subject after application to an area of rash approximately 1-10 square centimeters. Comparisons were made of antipruritic effect by marking on a 100 mm visual analog scale consisting of a plain line with the left end labeled “None” and the right end labeled “Maximal”. The subject was instructed to mark the scale at a point which they felt corresponded to the level of itchiness that they were feeling at the treatment site at the appropriate time. The samples were coded so that the subject was not aware of what a given sample was and they were not told if they were expected to have an effect. They carried out the evaluation unaided, applying the samples in any order they chose except where side-by-side comparisons were made as indicated in the tables. From the marked scale the pruritic score was determined as the number of mm from the left side of the scale to the subject's mark. Thus a higher value indicates a high level or pruritus and a low value indicates a low level to no pruritus.\nThe patient and test procedures were as described in example 3. The results of tests using oil-based formulations are in tables 2a through 2c.\nThe patient and test procedures were as described in example 3. The results of tests using oil-based formulations are in Table 3.\nSerial dilutions of Vita Moist Cream were made from an initial 5 ml quantity of Vita Moist Cream by adding successive 5 ml quantities of the diluent, Care Deeply Cream, to the starting formulation and subsequent 5 ml aliquots of successive dilutions as follows:\nAfter coding with numbers 1-6 as above, the preparations were randomly sorted and again coded […] and tested two at a time in alphabetical order. […] The minimal effective concentration in this formulation appears to be between 1.25 and 2.5 μg/ml."}},
  "note": "Values joined by “and” are separate entries in the source; they are usually repeats but may differ in a detail not shown here. Equal values may be shown once.",
  "data": [
    {"smiles": "C=C1CC[C@H](O)C/C1=C/C=C1\\CCC[C@]2(C)[C@@H]([C@H](C)CCCC(C)C)CC[C@@H]12", "note": "[Vitamin D3, cholecalciferol]", "values": [
      {"measurement": "antipruritic effect (in words)", "setting": "pruritus of sunburn; 1000 μg/ml in corn oil", "result": "immediately and completely alleviated"},
      {"measurement": "time until the pruritus returned", "setting": "pruritus of sunburn; after 1000 μg/ml in corn oil", "result": "one and one-half"},
      {"measurement": "antipruritic effect (in words, no scores recorded)", "setting": "[1]; 869 μg/ml in Eucerin lotion, compared with Eucerin plus corn oil control", "result": "stopped the pruritus instantly and completely"},
      {"measurement": "antipruritic effect (in words)", "setting": "[1]; Keri lotion as vehicle, Table 1b", "result": "rapid and complete antipruritic effect"},
      {"measurement": "pruritic score (100 mm visual analog scale)", "setting": "[1]; Keri lotion with added isopropyl myristate, 52 μg/ml, time 0 min", "result": 77, "unit": "mm"},
      {"measurement": "pruritic score (100 mm visual analog scale)", "setting": "[1]; Keri lotion with added isopropyl myristate, 52 μg/ml, time 1 min", "result": 35, "unit": "mm"},
      {"measurement": "pruritic score (100 mm visual analog scale)", "setting": "[1]; Keri lotion with added isopropyl myristate, 52 μg/ml, time 5 min", "result": 0, "unit": "mm"},
      {"measurement": "pruritic score (100 mm visual analog scale)", "setting": "[1]; Keri lotion with added isopropyl myristate, 52 μg/ml, time 10 min", "result": 0, "unit": "mm"},
      {"measurement": "pruritic score (100 mm visual analog scale)", "setting": "[1]; Keri lotion with added isopropyl myristate, 502 μg/ml, time 0 min", "result": 80, "unit": "mm"},
      {"measurement": "pruritic score (100 mm visual analog scale)", "setting": "[1]; Keri lotion with added isopropyl myristate, 502 μg/ml, time 1 min", "result": 0, "unit": "mm"},
      {"measurement": "pruritic score (100 mm visual analog scale)", "setting": "[1]; Keri lotion with added isopropyl myristate, 502 μg/ml, time 5 min", "result": 0, "unit": "mm"},
      {"measurement": "pruritic score (100 mm visual analog scale)", "setting": "[1]; Keri lotion with added isopropyl myristate, 502 μg/ml, time 10 min", "result": 0, "unit": "mm"},
      {"measurement": "pruritic score (100 mm visual analog scale)", "setting": "[1]; Keri lotion with added isopropyl myristate, 869 μg/ml, time 0 min", "result": 82, "unit": "mm"},
      {"measurement": "pruritic score (100 mm visual analog scale)", "setting": "[1]; Keri lotion with added isopropyl myristate, 869 μg/ml, time 1 min", "result": 0, "unit": "mm"},
      {"measurement": "pruritic score (100 mm visual analog scale)", "setting": "[1]; Keri lotion with added isopropyl myristate, 869 μg/ml, time 5 min", "result": 0, "unit": "mm"},
      {"measurement": "pruritic score (100 mm visual analog scale)", "setting": "[1]; Keri lotion with added isopropyl myristate, 869 μg/ml, time 10 min", "result": 0, "unit": "mm"},
      {"measurement": "pruritic score (100 mm visual analog scale)", "setting": "[1]; Keri lotion, 10 μg/ml, no isopropyl myristate, time 0 min, single tests", "result": "78 mm and 80 mm"},
      {"measurement": "pruritic score (100 mm visual analog scale)", "setting": "[1]; Keri lotion, 10 μg/ml, no isopropyl myristate, time 1 min, single tests", "result": 0, "unit": "mm"},
      {"measurement": "pruritic score (100 mm visual analog scale)", "setting": "[1]; Keri lotion, 10 μg/ml, no isopropyl myristate, time 5 min, single tests", "result": 0, "unit": "mm"},
      {"measurement": "pruritic score (100 mm visual analog scale)", "setting": "[1]; Keri lotion, 10 μg/ml, no isopropyl myristate, time 10 min, single tests", "result": 0, "unit": "mm"},
      {"measurement": "pruritic score (100 mm visual analog scale)", "setting": "[1]; Keri lotion, 10 μg/ml, with isopropyl myristate, time 0 min, single tests", "result": "80 mm and 77 mm"},
      {"measurement": "pruritic score (100 mm visual analog scale)", "setting": "[1]; Keri lotion, 10 μg/ml, with isopropyl myristate, time 5 min, single tests", "result": 0, "unit": "mm"},
      {"measurement": "pruritic score (100 mm visual analog scale)", "setting": "[1]; Keri lotion, 10 μg/ml, with isopropyl myristate, time 10 min, single tests", "result": 0, "unit": "mm"},
      {"measurement": "pruritic score, Mean", "setting": "[1]; Keri lotion, 10 μg/ml, mean of four tests (with and without isopropyl myristate), time 0 min", "result": 79, "unit": "mm"},
      {"measurement": "pruritic score, Mean", "setting": "[1]; Keri lotion, 10 μg/ml, mean of four tests (with and without isopropyl myristate), time 1 min", "result": 0, "unit": "mm"},
      {"measurement": "pruritic score, Mean", "setting": "[1]; Keri lotion, 10 μg/ml, mean of four tests (with and without isopropyl myristate), time 5 min", "result": 0, "unit": "mm"},
      {"measurement": "pruritic score, Mean", "setting": "[1]; Keri lotion, 10 μg/ml, mean of four tests (with and without isopropyl myristate), time 10 min", "result": 0, "unit": "mm"},
      {"measurement": "pruritic score (100 mm visual analog scale)", "setting": "[1]; Keri lotion, 521 μg/ml, no isopropyl myristate, time 0 min", "result": 80, "unit": "mm"},
      {"measurement": "pruritic score (100 mm visual analog scale)", "setting": "[1]; Keri lotion, 521 μg/ml, no isopropyl myristate, time 1 min", "result": 81, "unit": "mm"},
      {"measurement": "pruritic score (100 mm visual analog scale)", "setting": "[1]; Keri lotion, 521 μg/ml, no isopropyl myristate, time 5 min", "result": 0, "unit": "mm"},
      {"measurement": "pruritic score (100 mm visual analog scale)", "setting": "[1]; Keri lotion, 521 μg/ml, no isopropyl myristate, time 10 min", "result": 0, "unit": "mm"},
      {"measurement": "antipruritic effect (in words)", "setting": "[1]; Keri lotion, concentrations from 10 through 869 μg/ml, Table 1c", "result": "effective in rapidly and effectively relieving pruritus"},
      {"measurement": "antipruritic effect (in words)", "setting": "[1]; Vita Moist Cream diluted with Care Deeply Cream, 1.25 μg/ml and 0.5 μg/ml", "result": "some antipruritic effect but the effect was not complete nor was it rapid and sustained"},
      {"measurement": "antipruritic effect (in words)", "setting": "[1]; Vita Moist Cream diluted with Care Deeply Cream, 2.5 and 5 μg/ml", "result": "rapid and complete alleviation of pruritus"},
      {"measurement": "antipruritic effect (in words)", "setting": "[1]; corn oil vehicle, 1000 μg/ml, mean of two tests compared to vehicle control", "result": "no detectable antipruritic effect"},
      {"measurement": "pruritic score, Mean", "setting": "[1]; corn oil, 1000 μg/ml, mean of two tests, time 0 min", "result": 81, "unit": "mm"},
      {"measurement": "pruritic score, Mean", "setting": "[1]; corn oil, 1000 μg/ml, mean of two tests, time 1 min", "result": 81, "unit": "mm"},
      {"measurement": "pruritic score, Mean", "setting": "[1]; corn oil, 1000 μg/ml, mean of two tests, time 5 min", "result": 70, "unit": "mm"},
      {"measurement": "pruritic score, Mean", "setting": "[1]; corn oil, 1000 μg/ml, mean of two tests, time 10 min", "result": 59, "unit": "mm"},
      {"measurement": "pruritic score (100 mm visual analog scale)", "setting": "[1]; corn oil, 1000 μg/ml, time 0 min, tests 1 and 2", "result": "80 mm and 81 mm"},
      {"measurement": "pruritic score (100 mm visual analog scale)", "setting": "[1]; corn oil, 1000 μg/ml, time 1 min, tests 1 and 2", "result": "80 mm and 81 mm"},
      {"measurement": "pruritic score (100 mm visual analog scale)", "setting": "[1]; corn oil, 1000 μg/ml, time 5 min, tests 1 and 2", "result": "81 mm and 58 mm"},
      {"measurement": "pruritic score (100 mm visual analog scale)", "setting": "[1]; corn oil, 1000 μg/ml, time 10 min, tests 1 and 2", "result": "60 mm and 58 mm"},
      {"measurement": "lowest concentration found to have an anti-pruritic effect", "setting": "[1]; non-aqueous vehicle", "result": 521, "unit": "µg/mL"},
      {"measurement": "antipruritic effect (in words)", "setting": "[1]; petroleum jelly vehicle, 521 μg/ml", "result": "an antipruritic effect"},
      {"measurement": "pruritic score (100 mm visual analog scale)", "setting": "[1]; petroleum jelly, 521 μg/ml, time 0 min", "result": 72, "unit": "mm"},
      {"measurement": "pruritic score (100 mm visual analog scale)", "setting": "[1]; petroleum jelly, 521 μg/ml, time 1 min", "result": 11, "unit": "mm"},
      {"measurement": "pruritic score (100 mm visual analog scale)", "setting": "[1]; petroleum jelly, 521 μg/ml, time 5 min", "result": 10, "unit": "mm"},
      {"measurement": "pruritic score (100 mm visual analog scale)", "setting": "[1]; petroleum jelly, 521 μg/ml, time 10 min", "result": 9, "unit": "mm"},
      {"measurement": "effective concentration", "setting": "[1]; suspension of water and a dispersed phase", "result": 12.5, "unit": "µg/mL"},
      {"measurement": "lowest effective concentration", "setting": "[1]; water-based emulsion formulation", "result": 2.5, "unit": "µg/mL"}
    ]}
  ]
}
